In article PMC2874894 (Investigative ophthalmology & visual science, 2009):

Biological target: rPASP (Pseudomonas aeruginosa small protease) (Pseudomonas aeruginosa, UniProt Q9I690)
Test: fluorescein-gelatin hydrolysis, fluorescence
Format: biochemical
Conditions: fluorescein-conjugated gelatin substrate; rPASP 10 ug; 24 h, 37 °C

Chain of rPASP (Pseudomonas aeruginosa small protease) (Q9I690 whole entry): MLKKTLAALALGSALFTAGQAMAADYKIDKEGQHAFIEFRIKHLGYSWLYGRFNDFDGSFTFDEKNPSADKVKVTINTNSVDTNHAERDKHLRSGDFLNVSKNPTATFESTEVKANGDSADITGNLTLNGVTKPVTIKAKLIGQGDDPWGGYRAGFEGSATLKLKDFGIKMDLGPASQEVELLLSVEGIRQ

**Q.** How did the dose-dependent inhibition turn out when `Cc1ccc(S(=O)(=O)N[C@@H](CCCCN)C(=O)CCl)cc1` [TLCK] was run?
**A.** Its dose-dependent inhibition is “Only TLCK demonstrated dose-dependent inhibition of rPASP activity”.
